Test system: human nose
Assay: Odor intensity evaluation by panelists and Human Recognition Slope Factor (HRSF) calculation in DPG
Conditions: for HRSF (Human Recognition Slope Factor = Ii/xi) / Ii (maximum intensity in a given media) / xi (lowest concentration to reach maximum intensity): low hydrophobic media (DPG); for Odor Intensity (I): average of 25 panelists, in DPG
From the text: The Human Recognition Slope Factor (HRSF) is a tool in choosing the most efficient high odor value materials to create perfume booster accords. […] The higher the number, the more efficient the material will be.
The HRSF identifies the behavior of perfume materials through the relevant range of concentrations in a given product. The calculation process of the HRSF also defines the concentration where the high odor value material reaches its maximum intensity in a given media.
The HRSF is determined by the following calculations: HRSF=Ii/xi wherein: HRSF=Human Recognition Slope Factor; Ii is the maximum intensity that a high odor value material delivers in a given media; and xi is the lowest concentration of the high odor value material to reach maximum intensity.
The value of Ii and xi are calculated using the following two equations. The first equation (I) describes the intensity of a high odor value material across a broad range of concentrations. The second equation (VI) allows one to find the maximum concentration when both mathematical equations reach the same intensity value. I=a/(1+(x/c)ˆb) (I) wherein: I is the Intensity of the high odor value material; x is the concentration of the material; and a, b, and c are experimental constants for each high odor value material.
The experimental constants of “a, b, and c” are generated by performing a non linear regression analysis using commercially available software. One software package useful in performing the non linear regression analysis is GraphPad Prism 4 for Windows, available from GraphPad Software, Inc., San Diego Calif.
Odor evaluations of each raw material are conducted among at least 25 people. Each material is diluted to a given concentration, and panelists are requested to grade the smell using a numeric scale (Low: 0-15, Slight: 16-30, Moderate: 31-50, Strong: 51-70, Very Strong: 71-up). Internal controls containing Benzyl salicylate, Citronellol and Ethyl 2 Methyl Butyrate are used to define the standard intensity for each range.
An illustration of how the non linear regression analysis works is described below. In the following example, the material Alpha Damascone was used for illustrative purposes. The experimental data from 25 panelists indicate that the average value for each observation of Alpha Damascone in DPG is as follows:
The goal of the software package is to minimize the sum of the squares of the vertical distances of the points from the curve. The software prompts the user to perform the following steps to run an iterative process that allows one to find the values of a, b, and c. The R^2 factor (shown below) will indicate if the objective of minimizing the sum of the squares of the vertical distances of the points from the curve was achieved. The closer the R^2 factor is to 1.0, the better the “best-fit values” will be.
The software generates the curve defined by the initial values, calculates the sum-of-squares (the sum of the squares of the vertical distances of the points from the curve), adjusts the variables to make the curve come closer to the data points, adjusts the variables again so that the curve comes even closer to the points, keeps adjusting the variables until the adjustments make virtually no difference in the sum-of-squares and reports the best-fit results.
The “best fit values” are the “a, b, and c” values used in all the equations described herein. Once the “a, b, and c” values are determined, proceed with the following equations.
By definition, the curve that describes that Intensity and its differential curve will meet at the point where a given material delivers the maximum intensity with the minimum mass. Therefore, the next step is to calculate the intersection point by solving the following equation: (ab(xi/c)ˆb)/(x((x/c)ˆb+1)ˆ2=a/(1+(x/c)ˆb) (V)
Therefore, (ab(xi/c)ˆb)/(xi((xi/c)ˆb+1)ˆ2−a/(1+(xi/c)ˆb)=0 (VI) […]

For `CC(=O)OC(C)c1ccccc1` (stereo not shown) [Methyl Phenyl Carbinyl Acetate], the “HRSF (Human Recognition Slope Factor = Ii/xi)” value was 756, the “Ii (maximum intensity in a given media)” value was 50.63 and the “xi (lowest concentration to reach maximum intensity)” value was 0.067.
For `CC(=O)/C=C/C1C(C)=CCCC1(C)C` (stereo not shown) [Ionone Apha, 3-buten-2-one, 4-(2,6,6-trimethyl-2-cyclohexen-1-yl), (E)], the “HRSF (Human Recognition Slope Factor = Ii/xi)” value was 1,157, the “Ii (maximum intensity in a given media)” value was 91.99 and the “xi (lowest concentration to reach maximum intensity)” value was 0.0795.
`CC(=O)C=CC1=C(C)CCCC1(C)C` [Ionone Beta, 4-(2,6,6-Trimethyl-1-cyclohexenyl)-3-butenone-2] was tested, and the “HRSF (Human Recognition Slope Factor = Ii/xi)” value was 15,451, the “Ii (maximum intensity in a given media)” value was 47.90 and the “xi (lowest concentration to reach maximum intensity)” value was 0.0031.
In the case of `Cc1ccc2c(c1)OCC(=O)CO2` [Calone 1951, Methyl-3,4-dioxy(cylcoacetonyl) benzene], the “HRSF (Human Recognition Slope Factor = Ii/xi)” value is reported as 1,030, the “Ii (maximum intensity in a given media)” value is reported as 71.88 and the “xi (lowest concentration to reach maximum intensity)” value is reported as 0.0698.
With `CC(=O)OC1CCCCC1C(C)(C)C` (stereo not shown) [Verdox, ortho tertiary butyl cyclohexanyl acetate] the “HRSF (Human Recognition Slope Factor = Ii/xi)” value was 998, the “Ii (maximum intensity in a given media)” value was 51.91 and the “xi (lowest concentration to reach maximum intensity)” value was 0.052.
For `CC(=O)C(C)=CC1C(C)=CCCC1(C)C` (stereo not shown) [3-buten-2-one, 3-methyl-4-(2,6,6-trimethyl-2-cyclohexen-1-yl)], the “HRSF (Human Recognition Slope Factor = Ii/xi)” value was 1,204, the “Ii (maximum intensity in a given media)” value was 85.50 and the “xi (lowest concentration to reach maximum intensity)” value was 0.071.
With “Hexahydro-4,7methano-1H-inden-5(or 6)-yl propionate [Frutene]” the “HRSF (Human Recognition Slope Factor = Ii/xi)” value was 738, the “Ii (maximum intensity in a given media)” value was 80.35 and the “xi (lowest concentration to reach maximum intensity)” value was 0.1089.
For `CC1=CCC(C=CC(C)(C)C(C)O)C1(C)C` (stereo not shown) [Polysantol, 3,3-Dimethyl-5-(2,2,3-trimethyl-3-cycloenten-1-yl)-4-penten-2-ol], the “HRSF (Human Recognition Slope Factor = Ii/xi)” value was 690, the “Ii (maximum intensity in a given media)” value was 73.16 and the “xi (lowest concentration to reach maximum intensity)” value was 0.106.
With `CCOC(=O)CC1(C)OCCO1` [Fructone, ethyl methyl dioxolane acetate] the “HRSF (Human Recognition Slope Factor = Ii/xi)” value was 2,243, the “Ii (maximum intensity in a given media)” value was 62.36 and the “xi (lowest concentration to reach maximum intensity)” value was 0.0278.
In the case of `CCCCCCCCCC=O` [Decyl Aldehyde], the “HRSF (Human Recognition Slope Factor = Ii/xi)” value is reported as 1,098, the “Ii (maximum intensity in a given media)” value is reported as 54.35 and the “xi (lowest concentration to reach maximum intensity)” value is reported as 0.0495.
With Methyl Cedrylone the “HRSF (Human Recognition Slope Factor = Ii/xi)” value was 811, the “Ii (maximum intensity in a given media)” value was 84.44 and the “xi (lowest concentration to reach maximum intensity)” value was 0.1041.
In the case of `CC1(C)CCC[C@]2(C)[C@H]3CCO[C@]3(C)CC[C@@H]12` [Ambroxan, (3aR-(3aalpha,5abeta,9aalpha,9bbeta))-dodecahydro-3a,6,6,9a-tetramethyl naphtha(2,1-b)furan], the “HRSF (Human Recognition Slope Factor = Ii/xi)” value is reported as 7,675, the “Ii (maximum intensity in a given media)” value is reported as 68.31 and the “xi (lowest concentration to reach maximum intensity)” value is reported as 0.0089.
`CCCCCCCCCCCC=O` [Lauric Ald] was tested, and the “HRSF (Human Recognition Slope Factor = Ii/xi)” value was 1,409, the “Ii (maximum intensity in a given media)” value was 67.33 and the “xi (lowest concentration to reach maximum intensity)” value was 0.0478.
With `CCC(C)(O)CCCC(C)C` (stereo not shown) [Tetra Hydro linalool, Tetra Hydro 3,7-Dimethyl-1,6-octadien-3-ol] the “HRSF (Human Recognition Slope Factor = Ii/xi)” value was 838, the “Ii (maximum intensity in a given media)” value was 53.69 and the “xi (lowest concentration to reach maximum intensity)” value was 0.0641.
`C/C=C\C(=O)C1C(C)=CCCC1(C)C` (stereo not drawn) [Alpha Damascone] was tested, and the “Odor Intensity (I)” value (Concentration (X) 0.0004) was 5, the “Odor Intensity (I)” value (Concentration (X) 0.0022) was 15 and the “Odor Intensity (I)” value (Concentration (X) 0.0032) was 25. For the same molecule, the “Odor Intensity (I)” value (Concentration (X) 0.0044) was 35, the “Odor Intensity (I)” value (Concentration (X) 0.0072) was 50 and the “Odor Intensity (I)” value (Concentration (X) 0.0092) was 55. The “Odor Intensity (I)” value (Concentration (X) 0.0170) was 60, the “HRSF (Human Recognition Slope Factor = Ii/xi)” value was 2,034 and the “Ii (maximum intensity in a given media)” value was 62.86. For the same molecule, the “xi (lowest concentration to reach maximum intensity)” value was 0.0309.
For `CC(=O)OC1CC2CC1C1CC=CC21` (stereo not shown) [Tricyclo decenyl acetate], the “HRSF (Human Recognition Slope Factor = Ii/xi)” value was 1,379, the “Ii (maximum intensity in a given media)” value was 46.74 and the “xi (lowest concentration to reach maximum intensity)” value was 0.0339.
